# Measurements reported in article PMC5595280, “Cytotoxicity and anti-tumor effects of new ruthenium complexes on triple negative breast cancer cells” (PLoS ONE, 2017).
# Key:
# HSA = HSA (Homo sapiens, UniProt P02768); experiment: HSA tryptophan fluorescence quenching; type: binding
# Method: For fluorescence measurements, the HSA concentration in Tris–HCl buffer was kept constant in all the samples, while the complex concentration was increased from 0.50 to 50 μM, and quenching of the emission intensity of the HSA tryptophan residues at 305 nm (excitation wavelength 270 nm) was monitored at different temperatures (25°C and 37°C). The experiments were carried out in triplicate and analysed using the classical Stern-Volmer equation. The binding constant (Kb) and number of complexes bound to HSA (n) were determined by plotting the double log graph of the fluorescence data using: log [(F0-F)/F] = log Kb + nlog[Q]. The thermodynamic parameter (ΔH) was calculated from equation: ln (K2/K1) = [(1/T1)-(1/T2)]ΔH/R, where K1 and K2 are the binding constants at temperatures T1 and T2, and R is the gas constant. Furthermore, the change in free energy (ΔG) and entropy (ΔS) were calculated from the following equation: ΔG = -RT lnK = ΔH − TΔS.
# Human serum albumin (HSA) is the most abundant protein in the blood and cerebrospinal fluid and plays a fundamental role in the distribution of essential transition metal ions in the human body. Moreover, HSA is an important physiological transporter of the essential metal ions Cu^2+, and Zn^2+ in the bloodstream. […] The fluorescence spectrum is essentially that of tryptophan residue; contribution of tyrosine is relatively minor. In order to determine the protein binding affinity of complexes (1–4), tryptophan emission quenching experiments were carried out by adding the complexes in increasing concentration (0–50 μM) to HSA at two different temperatures and following the decrease in fluorescence intensities (Fig 6D). The results point out a good linearity at the two different temperatures. The binding constants, KSV, calculated from the Stern-Volmer equation are presented on Table 2.
# MDA-MB-231 cells [1] = experiment: Wound healing migration assay; type: cell-based, human; details: 5, 10 and 20 μM, 24 and 48 h
# Method: The effects of complex (4) on tumor cell migration was investigated by two methods, wound healing and transwell assays using Boyden chambers. For wound healing, MDA-MB-231 cells (2 x10^5/mL) were plated in 12-wells plates and incubated properly until the culture reached 100% of confluence. Afterwards, a straight scratch was made with a sterile pipette tip and cells were washed with culture medium to remove unbound cells and debris. Cells were incubated with complex (4) 5, 10 and 20 μM for 24 and 48 h. Cells were viewed using an inverted microscope (Nikon, T5100) at 40× total magnification and images were captured (Moticam, 1000-S camera) at 0 h, 24 h and 48 h. Closure area of migrating cells was measured using Image J software, and the percentage of wound closure was calculated, comparing time zero and 48 h, using a formula from Yue and co-workers.
# % wound closure=(At=0h−At=Δh)/(At=0h)x (100)
# MDA-MB-231 cells [2] = experiment: Phalloidin staining of F-actin cytoskeleton; type: cell-based, human; details: 30 min
# Method: To examine the effects of complex (4) on the F-actin cytoskeleton organization in MDA-MB-231 cells, Alexa Fluor® 488 Phalloidin was used to stain the F-actin fibers. MDA-MB-231 cells (5x10^4 cells/100 μL) were plated in 96-well plates and maintained at 37°C in a humidified incubator with 5% CO2 for 24 h. In the next day, cells were treated with 10, 20, 40 μM of complex (4) and incubated for 30 min. Next, cells were washed with PBS, fixed with 3.7% paraformaldehyde in PBS for 30 min and then permeabilized with 0.1% Triton-X 100 in PBS for 5min at room temperature. Blocking was performed with 2% BSA for 30 min, followed by the addition of Alexa Fluor 488 Phalloidin for 20 min. Cells were then stained with DAPI for nuclear labeling for 10min and finally washed again with PBS for three times. Images were obtained with an automated microscope ImageXpress® Micro XLS System (Molecular Devices).
# MCF-10A cells = experiment: Apoptosis by flow cytometry (PE-Annexin-V / 7AAD); type: cell-based, human; details: 20 μM, 3 h
# Method: (§1) MDA-MB-231 and MCF-10A cells (1.0 x 10^5/mL) were seeded in 12-well plates in a complete DMEM medium and incubated for 24 h. After this period the medium was removed and cells were incubated or not (control) with different concentrations of complex (4), for 3 h at 37°C and 5% CO2. After treatment the plate was centrifuged at 2000 rpm for 5 min at 4°C, washed with PBS and resuspended in 400 μL of binding buffer from the kit. Cells were incubated with 10 μL of 7AAD and 10 μL of PE-Annexin-V for 15 min protected from light. After the incubation period the supernatant was removed and 400 μL of binding buffer were added to the wells. Cells were then removed from the wells with the aid of a scraper and transferred to flow cytometry tubes. The reading was performed in Accuri C6 flow cytometer (BD Biosciences) and fluorescence emitted by each dye was quantified using CellQuest software (BD Biosciences).
# MDA-MB-231 cells [3] = experiment: Apoptosis by flow cytometry (PE-Annexin-V / 7AAD); type: cell-based, human; details: MDA-MB-231, 20 μM, 3 h
# Method: as §1
# pBR322 plasmid DNA = experiment: Agarose gel electrophoresis of plasmid DNA; type: binding; details: Ri 0.50, 18 h, 37°C
# Method: Ten microliters of pBR322 plasmid DNA in a Tris-HCl buffer were incubated at 37°C for 18 h with molar ratios between 0.12 and 0.5. After incubation, 5 μL of each sample was separated by electrophoresis in a 1% agarose gel for 45 min at 100V using a Tris borate–EDTA buffer (TBE) and stained with ethidium bromide ([…] ethidium bromide per 40 mL agarose gel mixture). Samples of DNA with DMSO were used as controls. The DNA bands were visualized as an image using a UV light transilluminator (ChemiDoc MP, BioRad Laboratories).
# The influence of the compounds on the tertiary structure of DNA was determined by their ability to modify the electrophoretic mobility of forms of pBR322 plasmid DNA (Fig 6C). Agarose gel electrophoresis was performed using pBR322 plasmid DNA in the absence and presence of the complexes. […] In Ri 0.12 and 0.25 complexes (1–3) show the corresponding open circular, linear and super coiled form. […] This means that the degree of super helicity of the DNA molecules has been altered, in the same way as that described previously for other coordination platinum(II) and palladium (II) compounds containing 7-azaindolyl ligand [36].
# Chain of HSA (P02768 25-609): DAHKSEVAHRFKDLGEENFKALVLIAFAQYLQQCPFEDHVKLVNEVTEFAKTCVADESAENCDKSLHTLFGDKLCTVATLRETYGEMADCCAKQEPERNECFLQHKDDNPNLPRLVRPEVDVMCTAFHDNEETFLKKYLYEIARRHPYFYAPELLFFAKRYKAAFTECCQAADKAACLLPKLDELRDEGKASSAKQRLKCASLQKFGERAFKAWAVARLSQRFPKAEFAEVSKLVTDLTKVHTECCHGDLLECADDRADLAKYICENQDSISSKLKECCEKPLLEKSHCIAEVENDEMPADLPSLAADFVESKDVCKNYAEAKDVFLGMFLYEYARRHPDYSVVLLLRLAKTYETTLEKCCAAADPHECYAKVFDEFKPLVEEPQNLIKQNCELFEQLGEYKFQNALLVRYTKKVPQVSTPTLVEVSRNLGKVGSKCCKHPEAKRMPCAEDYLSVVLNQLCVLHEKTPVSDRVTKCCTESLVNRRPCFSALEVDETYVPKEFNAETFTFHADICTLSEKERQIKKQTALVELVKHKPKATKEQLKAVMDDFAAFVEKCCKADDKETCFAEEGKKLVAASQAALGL
smiles,measurement,setting,value
"CC(=O)[O-].F[P-](F)(F)(F)(F)F.[Ru+2].c1ccc(-c2ccccn2)nc1.c1ccc(P(CCCCP(c2ccccc2)c2ccccc2)c2ccccc2)cc1 [Complex (4), [Ru(CH3CO2)(dppb)(bipy)]PF6]",Kq (HSA),HSA; T 298,4.95e+13 M⁻¹ s⁻¹
same,Ksv (HSA),HSA; T 298,4.74 ± 0.70 x10^4 M^-1
same,"n (number of binding sites, HSA)",HSA; T 298,1.20
same,ΔS (HSA),HSA; complex-HSA system,110.13 J.mol^-1K
same,ΔH (HSA),HSA; from binding constants at 298 and 310,0.359 kcal/mol
same,effect on cell migration (wound healing),MDA-MB-231 cells [1],inhibited MDA-MB-231 cell migration in a concentration dependent fashion
same,effect on actin cytoskeleton structure,"MDA-MB-231 cells [2]; 10, 20 and 40 μM",strongly modified the structure of the actin cytoskeleton
same,effect on cytoskeleton density,MDA-MB-231 cells [2]; 20 and 40 μM,decrease in cytoskeleton density
same,cells suffering apoptosis,MCF-10A cells,14.9%
same,cells suffering apoptosis,MDA-MB-231 cells [3],74.4%
same,electrophoretic mobility of super coiled pBR322 band,pBR322 plasmid DNA,increased the electrophoretic mobility
